Tests used:
N-terminal cysteine GST = target: T1, N-terminal cysteine GST (Schistosoma japonicum, UniProt P08515); experiment: In vivo time-course labelling of N-terminal cysteine GST in live bacterial cells; format: cell-based, E. coli; details: cells expressing labelled GST, FIG. 15
T1 construct: Ssp DnaB intein tag (pTWIN2) (N, cleaved yes); expressed in transfected cells; host or cells: E. coli ER2566 transformed with pTWIN2-GST
Procedure: To generate in vivo proteins having N-terminal cysteine residues, bacterial cells expressing N-terminal cysteine-containing proteins EGFP and GST fused to the C-terminus of the Ssp DnaB mini-intein were induced to undergo self-cleavage, releasing the N-terminal cysteine protein, then incubated with the probes over a period of 24 h.
Briefly, the above bacterial constructs were transformed into the E. coli expression strain ER2566 (NEB) and grown in 100 mg/L ampicillin containing LB media at 37° C. […]
For the time-course labelling experiments, a small sample of cells was removed at each time interval, quenched with 0.01M cysteine, and lysed by boiling with SDS loading buffer. The resulting sample was analyzed directly on a 12% SDS-PAGE. Fluorescence labelling was visualized with a Typhoon™ fluorescence scanner (Amersham Biosciences). Biotinylated proteins were detected by western blotting (with anti-biotin-HRP) with the Enhanced ChemiLuminescent™ kit (Amersham).
Results are shown in FIG. 13, where i=cells labelled with probe 2 (FL), ii=cells labelled with probe 3 (TMR) and iii=cells labelled with probe 5 (biotin) (lanes 1-8 are samples taken at 0 min, 10 min, 30 min, 1 h, 3 h, 6 h, 12 h and 24 h, respectively). The results of the 24 hour time-course are quantified in FIG. 14 (FL=♦, TMR=▪ and BIOTIN=▴).

[1] = tested on: N-terminal cysteine ECFP-NLS; experiment: Fluorescence microscopy / FRET of HEK293 cells expressing N-terminal cysteine ECFP-NLS; format: cell-based; details: HEK293 cells transfected with ECFP-NLS
Description: Intein-fused EGFP and ECFP (enhanced cyan fluorescent protein) were constructed, in which an extra N-terminal cysteine was introduced into both EGFP and ECFP, as described above. To facilitate evaluation of the labelling, as well as to assess whether the strategy targets proteins expressed in subcellular compartments of mammalian cells (e.g. nucleus), a nuclear localization sequence (NLS) was fused to ECFP, generating ECFP-NLS. The intein-fused EGFP gene was amplified from the above bacterial construct, while the ECFP gene with a nuclear localization sequence (ECFP-NLS) was amplified from pECFP-Nuc (Clontech, USA) and cloned first into the pTWIN1 vector. Using the GATEWAY™ cloning system (Invitrogen, USA), the intein-fused genes were cloned into the donor vector pDONR201, followed by recombination of the cloned genes into a mammalian expression vector pT-Rex-DEST30 (Invitrogen). All constructs were sequence verified. […]
Fluorescence microscopy experiments were also performed using HEK293 mammalian cells. […] The fluorescence images were obtained using the excitation and emission channels described above for the bacterial experiments.

[2] = tested on: control proteins without N-terminal cysteine (GST, Protease, Lipase, Papain, Pepsin); experiment: In vitro labelling of control proteins without an N-terminal cysteine (site-specificity); format: biochemical; details: 5 control proteins with no or only internal cysteines, 60 min incubation
Procedure: Probes were prepared as 200 μM stocks (25× in DMSO) and stored at −20° C. In a typical labelling reaction, 6 μl of each probe (final concentration: 8 μM) was added to 50 μl of pure protein (1 mg/ml) dissolved in 1×PBS (final concentration of protein: ˜[…]), with or without 1 mM DTT, and the reaction was topped up with 1×PBS to a final volume of 150 μl. DTT was added to experiments, where live cells were used, to reduce background labelling. At specific time intervals, 15 μl of the reaction was withdrawn and quenched by addition of 1.7 μl of 100 mM cysteine to the reaction mixture (final concentration of cysteine: 10 mM), followed by denaturation with SDS-PAGE loading dye at 95° C. for 3 min. The loading dye also serves to hydrolyze the diacetate groups on probes 2 and 4, thereby releasing the fluorescence.
Probe 3 was used in the labelling reaction, and the reaction was performed as mentioned above with 60 min incubation time. All proteins are available from Sigma (St Louis, USA). (Lane 1. GST (cat #: G-4385); Lane 2. Protease (P-5380); Lane 3. Lipase (L-9031); Lane 4. Papain (P-4762); Lane 5. Pepsin (P-6887); Lane 6. BioRad Precision Plus Protein Standards).

N-terminal cysteine EGFP = N-terminal cysteine EGFP (Aequorea victoria, UniProt P42212, F64L/H231L/S65T); details: labelled bacterial cells expressing EGFP, excitation 470±20 nm, emission 605±30 nm
Procedure: The FRET channel for CFP/TMR pair was recorded using filters with an excitation: 436±20 nm and emission: 620±20 nm (Chroma). The FRET channel for GFP/TMR pair was using filters with excitation=470±20 nm and emission=605±30 nm (Zeiss).

HEK293 cells = experiment: Cell toxicity in HEK293 cells during labelling; format: cell-based; details: 100 μM, 24 h
Procedure: Briefly, HEK293 cells grown in DMEM+10% FBS media at 37° C. with 5% CO2 were transiently transfected with pT-Rex-DEST30-intein-EGFP-NLS or pT-Rex-DEST30-intein-ECFP-NLS using Polyfect™ (Qiagen, USA). See FIGS. 12ii. and iii., respectively, for in vivo intein cleavage for the expressed EGFP and ECFP proteins expressed in HEK293 cells. After 36 hours of protein expression, cells were washed in 1×PBS and cystine-free DMEM (Sigma) was added. The biotin-thioester probe, probe 5, was added to a final concentration of 100 μM (10-100 μM also worked) and cells were incubated for another 24 h. […] Cells were harvested by centrifugation at 1000 rpm for 10 min and resuspended in 1×PBS. Washings were repeated at least 3 times, and cells were lysed in PBS using glass beads. Magnetic streptavidin beads (Promega, USA) were used to pull-down all biotinylated proteins in the cell lysate. Beads were washed twice in 1× PBS, then boiled in 1×SDS loading buffer and loaded onto a 12% SDS-PAGE. Western blotting was used to assess biotinylated proteins, as described above.

T1 sequence (P08515 whole entry, added parts left off): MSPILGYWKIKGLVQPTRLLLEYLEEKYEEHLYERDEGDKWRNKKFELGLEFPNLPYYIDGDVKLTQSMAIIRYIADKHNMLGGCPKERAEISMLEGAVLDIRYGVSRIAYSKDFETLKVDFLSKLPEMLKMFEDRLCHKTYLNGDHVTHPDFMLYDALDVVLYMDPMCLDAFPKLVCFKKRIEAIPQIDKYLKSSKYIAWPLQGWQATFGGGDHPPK

O=C(CNC(=O)c1ccc(C2=C3C=CC(O)C=C3Oc3cc(O)ccc32)c(C(=O)O)c1)SCc1ccccc1 (stereo not drawn) [Probe 2, N-benzylsulfanylcarbonylmethyl-6-(3,6-dihydroxy-3H-xanthen-9-yl)-isophthalamic acid]
specificity of labelling inside the live cell (SDS-PAGE) (N-terminal cysteine GST): only the desired protein was labelled specifically, as well as covalently, inside the live cell, with little or no background observed

CN(C)c1ccc2c(c1)Oc1cc(N(C)C)ccc1C21OC(=O)c2cc(C(=O)NCC(=O)SCc3ccccc3)ccc21 [Probe 3, amino thioacetic acid S-benzyl ester of 5-carboxy-tetramethylrhodamine]
localization of labelling ([1]; 100 μM probe, 24 h): the majority of the labelling occurred inside the nucleus
FRET signal ([1]; excitation 436±10 nm, emission 620±30 nm): clear FRET signal in the nucleus of the labelled cells
site-specificity of labelling [2]: labelling occurred ONLY with proteins possessing an N-terminal cysteine
FRET signal (N-terminal cysteine EGFP): a clear FRET signal was observed

O=C(CCCCC1SCC2NC(=O)NC21)NCC(=O)SCc1ccccc1 (stereo not drawn) [Probe 5, [5-(2-oxo-hexahydro-thieno[3,4-d]imidazol-6-yl)-pentanoylamino]-thioacetic acid S-benzyl ester]
cell toxicity (HEK293 cells): No cell toxicity was observed

From patent US7449558B2, “Site-specific labelling of proteins” (National University of Singapore, priority 2003, dated 2008)
